The results in this text go back to publication PMC12670313 (ACS Central Science, 2025).

“Also recorded” adds a separate entry of the source.

One data set has as its target T1, MBNL1 protein (Homo sapiens, UniProt Q9NR56).
T1 sequence (Q9NR56 1-388): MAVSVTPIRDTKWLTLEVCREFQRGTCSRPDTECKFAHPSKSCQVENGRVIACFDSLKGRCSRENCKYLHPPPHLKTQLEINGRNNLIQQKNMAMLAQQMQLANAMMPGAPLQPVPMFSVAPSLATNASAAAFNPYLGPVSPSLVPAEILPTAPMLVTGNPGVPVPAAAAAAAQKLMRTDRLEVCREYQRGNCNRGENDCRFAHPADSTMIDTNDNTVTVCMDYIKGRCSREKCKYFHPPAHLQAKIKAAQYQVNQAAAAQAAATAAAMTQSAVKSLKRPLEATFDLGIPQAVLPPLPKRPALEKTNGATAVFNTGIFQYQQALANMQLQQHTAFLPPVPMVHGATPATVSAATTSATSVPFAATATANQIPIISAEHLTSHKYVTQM
Put plainly: Differential scanning fluorimetry with MBNL1 protein (SYPRO Orange). It is filed as binding. Particulars: MBNL1 10 μM. As to the method:
All experiments were performed using a QuantStudio 5, 384-well Block Real-Time PCR System (Applied Biosystems). Melting curve analyses were conducted using a temperature range from 20 to 95 °C, a ramp rate of 0.01 °C/s, and 75 acquisitions per °C. Melting temperatures (T m) were determined as the peak of the negative first derivative of the fluorescence curve. Each condition was measured in triplicate, and ΔT m values were calculated relative to vehicle control. The FAM-r(CUG)10-BHQ (FAM-CCGC-UGCU-GCUG-CUGC-UGCU-GCUG-CUGC-UGCU-GCGG-BHQ) oligonucleotide was purchased from Dharmacon (HPLC purified). Briefly, 500 nM FAM-r(CUG)10-BHQ was folded by heating at 95 °C for 2 min in 20 mM NaH2PO4/Na2HPO4 buffer, pH 7.4 and then snap cooling on ice for at least 10 min. The folded RNA was incubated with test compounds at the indicated concentrations for 30 min at room temperature. In the melting curve method, fluorescence intensity was monitored using the FAM filter channel.
DSF experiments to assess compound–MBNL1 interactions were performed using SYPRO Orange Dye (Invitrogen, catalog #S6651). […] Samples (10 μL) were transferred to a 384-well PCR plate, and fluorescence intensity as a function of temperature was monitored using the TAMRA filter channel.
In general terms: In DSF a fluorescence change marks the thermal transition of the protein.

The next data set deals with WT myotubes. In words: Viability of WT myotubes. It is filed as cell-based, human. As to conditions: 50 µM.
The target of the next data set is r(CUG)2. In words: Fluorescence binding assay with r(CUG) repeat RNA. As to conditions: A6 100 nM titrated with RNA; read-out: dissociation constant (Kd). On the procedure:
(§1) Binding assays employed the same RNA used in NMR studies (see “NMR Spectroscopy”). All binding experiments were performed in 1× TR-FRET Assay Buffer lacking Tween-20 on black 384-well nonbinding microplates (Greiner. catalog #781900) with a total volume of 10 μL per well. A 100 nM solution of A6 (the fluorescent probe) was prepared in the same buffer and increasing concentrations of the RNA were then titrated into the A6 solution. After a 20 min incubation at room temperature, fluorescence was measured by a Spectra Max M5 plate reader using an excitation wavelength of 320 nm and an emission wavelength of 480 nm. To confirm specificity, parallel measurements were performed with a fully paired RNA construct as a negative control, where no significant change in fluorescence was observed. The change in fluorescence signal as a function of RNA concentration was fitted to a standard ligand binding for one site saturation 6 Fobs=F0+Fmax−F0/1+(Kd/[RNA])^n where F obs is the observed fluorescence at each RNA concentration, F 0 and F max are the fluorescence intensities of free and fully bound RNA, K d is the dissociation constant, and n is the Hill coefficient.

For the next data set, the system named is fully paired RNA. In words: Fluorescence binding assay with fully paired RNA. As to conditions: A6 100 nM titrated with RNA. On the procedure:
as §1

The test system of data set [1] is r(CUG)2, NMR construct with two 1 × 1 UU internal loops (RNA, repeat) GACCUGCUGGUGAAAACCUGCUGGUC
As to conditions: RNA named only as r(CUG) repeats; binding assays used the NMR RNA.

Consider `Cc1ccc(CNC(=O)c2cc3c(N4CCCC4)nc(C)cn3n2)cc1` [A1], for which the thermal shift (ΔTm) (usually the change in melting temperature against a reference sample) at 100 µM on MBNL1 protein turned out to be 1 °C.

As to `Cc1cn2nc(C(=O)NCCc3ccccc3)cc2c(N2CCCC2)n1` [A5], the “toxicity in wild-type cells” value in the data set on WT myotubes is “caused toxicity”.

For `COc1ccc(CCNC(=O)c2cc3c(N4CCCC4)nc(C)cn3n2)cc1OC` [A6], the Kd (as a rule, the equilibrium constant for the complex coming apart) at r(CUG)2 came to 17 ± 2 µM. Further, in the data set with fully paired RNA, the “binding to fully paired RNA” value is on record as “no measurable binding affinity; also recorded: no significant binding”.

With `Cc1ccc(CNC(=O)c2cc3c(N4CCSCC4)nc(C)cn3n2)cc1` [B1], the Kd in data set [1] is over 50 µM.
